# Results published in patent US20110207916A1, “Dual Affinity Polypeptides for Purification” (priority 2007, published 2011).
# What was measured:
# [1] = tested on: VhhRR6(R2)-Z (variable region of Llama single chain antibody against RR6 fused to Z domain of Staphylococcus aureus protein A, SEQ ID NO 28); assay: Biacore SPR, binding of DAP VhhRR6(R2)-Z to Reactive Red 6 ligand (biotin-Reactive Red 6 on SA chip); settings: Table 1 (summary, rounded)
# Text: (§1) The commercialised surface plasmon resonance (SPR) technology for real time monitoring biomolecular binding event is used to measure the binding affinities for the prepared DAP candidates. The general principle of this technology is that a SPR sensor chip measures changes in refractive index, and the changes in refractive index correlate to changes in mass in the aqueous layer close to the sensor surface. When target molecules in solution bind to ligands, immobilised on the sensor surface, the mass increases, and when they dissociate from the ligands the mass decreases. This principle facilitates a continuous, real time monitoring of the association and dissociation of interacting molecules. The graphical presentation of the relationship provides quantitative information in real time on the binding specificity, active concentration of molecule in a sample, reaction kinetics and affinity.
# In order to evaluate the binding affinities for both of the binding affinities present in the DAP either IgG or the capturing ligand had to be immobilized onto the sensor chip. For IgG rabbit anti-Mannanase was used and for the ligand the chip was coated with streptavidin and the ligand was then immobilized via biotin linked to the appropriate ligand.
# In order to measure the binding to RR6 and acarbose the following compounds were prepared; biotin-linked acarbose and biotin-linked RR6.
# The mixture was stirred at RT for 30 min. […]
# (§2) The DAP candidates were analysed for binding to the capturing ligand sensor chip and the target biomolecule sensor chip respectively. […]
# Immobilisation occurred by direct covalent coupling to the surface (using the Amine Coupling Kit, BiaCore, GE Health Care) or via a capturing molecule as prescribed by the manufacturer (BiaCore, GE Health Care). The amount of coupled target was quantified and expressed in Refractive Units (RU).
# Interactions were monitored by injecting samples (20 μl/min) over the prepared sensor surface of the chip. Unless stated otherwise, the binding was assessed in 10 mM sodium acetatbuffer pH 5.0 at room temperature. […]
# [2] = tested on: VhhRR6(R2)-Z + IgG (variable region of Llama single chain antibody against RR6 fused to Z domain of Staphylococcus aureus protein A, SEQ ID NO 28, with IgG …); assay: Biacore SPR, binding of DAP VhhRR6(R2)-Z to Reactive Red 6 ligand in the presence of IgG; settings: Table 1 footnote b; VhhRR6(R2)-Z mixed with IgG before loading to the Biacore
# Text: as §1, with “affinity. […]” for “affinity.”
# as §2
# Immobilisation occurred by direct covalent coupling to the surface (using the Amine Coupling Kit, BiaCore, GE Health Care) or via a capturing molecule as prescribed by the manufacturer (BiaCore, GE Health Care). The amount of coupled target was quantified and expressed in […] (RU). […]
# [3] = biological target: T1, AMG-Z (AMG(1-526aa)::Z, Aspergillus niger glucoamylase fused to Z domain of Staphylococcus aureus protein A, SEQ ID NO 25) (Aspergillus niger, UniProt P69328); assay: Biacore SPR, binding of DAP AMG-Z to acarbose ligand (biotin-acarbose on SA chip)
# T1 construct: made in house; host or cells: Aspergillus oryzae (transformant JaL1171 of host BECh2)
# T1 sequence (P69328 25-526, added parts left off): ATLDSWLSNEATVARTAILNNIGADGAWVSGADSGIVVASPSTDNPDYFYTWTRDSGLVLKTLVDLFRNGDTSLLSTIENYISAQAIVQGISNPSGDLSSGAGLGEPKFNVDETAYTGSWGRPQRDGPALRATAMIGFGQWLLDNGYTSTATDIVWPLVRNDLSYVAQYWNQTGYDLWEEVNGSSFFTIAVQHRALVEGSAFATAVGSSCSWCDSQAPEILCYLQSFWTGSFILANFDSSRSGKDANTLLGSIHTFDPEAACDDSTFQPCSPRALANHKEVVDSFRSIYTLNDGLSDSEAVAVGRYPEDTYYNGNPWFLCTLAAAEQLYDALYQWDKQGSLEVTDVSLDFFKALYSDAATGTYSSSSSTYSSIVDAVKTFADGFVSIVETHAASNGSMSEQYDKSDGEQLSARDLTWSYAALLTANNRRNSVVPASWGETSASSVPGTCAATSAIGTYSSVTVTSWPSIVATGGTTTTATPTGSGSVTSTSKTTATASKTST
# Text: The commercialised surface plasmon resonance (SPR) technology for real time monitoring biomolecular binding event is used to measure the binding affinities for the prepared DAP candidates. The general principle of this technology is that a SPR sensor chip measures changes in refractive index, and the changes in refractive index correlate to changes in mass in the aqueous layer close to the sensor surface. When target molecules in solution bind to ligands, immobilised on the sensor surface, the mass increases, and when they dissociate from the ligands the mass decreases. This principle facilitates a continuous, real time monitoring of the association and dissociation of interacting molecules. The graphical presentation of the relationship provides quantitative information in real time on the binding specificity, active concentration of molecule in a sample, reaction kinetics and affinity. […]
# Immobilisation occurred by direct covalent coupling to the surface (using the Amine Coupling Kit, BiaCore, GE Health Care) or via a capturing molecule as prescribed by the manufacturer (BiaCore, GE Health Care). The amount of coupled target was quantified and expressed in Refractive Units (RU). […]
Molecule,Kd [1],Ligand binding ka [1],Ligand binding kd [1],Kd [2],binding after injection is stopped [2],"kon ([3]; pH 5, read-out: Ligand binding ka)","koff ([3]; pH 5, read-out: Ligand binding kd)"
Reactive Red 6 [RR6],0.2 µM,20000 M⁻¹ s⁻¹,0.004 s⁻¹,10 µM,the binding is broken completely as soon as the injection is stopped,–,–
C[C@H]1O[C@H](O[C@H]2[C@H](O)[C@@H](O)[C@@H](O[C@H]3[C@H](O)[C@@H](O)C(O)O[C@@H]3CO)O[C@@H]2CO)[C@H](O)[C@@H](O)[C@@H]1N[C@H]1C=C(CO)[C@@H](O)[C@H](O)[C@H]1O (stereo partly shown) [Acarbose],–,–,–,–,–,10000 M⁻¹ s⁻¹,0.002 s⁻¹
